Type in all cases: functional, cell-based
Test [1] concerns RAW264.7. The test can be described thus: Cytotoxicity against mouse RAW264.7 cells assessed as reduction in cell viability at <50 uM incubated for 24 hrs by MTT assay.
Test [2] relates to RAW264.7. As to the kind of experiment: Antiinflammatory activity in mouse RAW264.7 cells assessed as inhibition of LPS-induced NO production at 0.1 uM incubated for 24 hrs.
Test [3] has as its system RAW264.7. The test can be described thus: Antiinflammatory activity in mouse RAW264.7 cells assessed as reduction in LPS-induced IL-6 level at 0.05 uM measured after 24 hrs by ELISA method. In general terms: ELISA stands for enzyme-linked immunosorbent assay.
Test [4] concerns RAW264.7. As to the kind of experiment: Antiinflammatory activity in mouse RAW264.7 cells assessed as inhibition of LPS-induced NO production at 0.05 uM incubated for 24 hrs.
The test system of test [5] is RAW264.7. As to the kind of experiment: Antiinflammatory activity in mouse RAW264.7 cells assessed as inhibition of LPS-induced TNF-alpha expression at 0.1 uM measured after 24 hrs by ELISA method.
Test [6] has as its system RAW264.7. As to the kind of experiment: Antiinflammatory activity in mouse RAW264.7 cells assessed as inhibition of LPS-induced NO production at 1 uM incubated for 24 hrs.
The subject of test [7] is RAW264.7. As to the kind of experiment: Antiinflammatory activity in mouse RAW264.7 cells assessed as inhibition of LPS-induced NO production at 2 uM incubated for 24 hrs.
The test system of test [8] is RAW264.7. As to the kind of experiment: Cytotoxicity against mouse RAW264.7 cells assessed as reduction in cell viability at 2 to 10 uM incubated for 24 hrs by MTT assay. The following applies: dose 2-10 µM. A general note: Formazan colour is commonly taken as a measure of viable cells.
For test [9], the system named is RAW264.7. As to the kind of experiment: Antiinflammatory activity in mouse RAW264.7 cells assessed as inhibition of LPS-induced TNF-alpha expression at 0.2 uM measured after 24 hrs by ELISA method.
Test [10] concerns RAW264.7. The test can be described thus: Antiinflammatory activity in mouse RAW264.7 cells assessed as reduction in LPS-induced IL-6 level at 0.2 uM measured after 24 hrs by ELISA method.
Test [11] has as its system RAW264.7. As to the kind of experiment: Antiinflammatory activity in mouse RAW264.7 cells assessed as inhibition of LPS-induced NO production at 0.2 uM incubated for 24 hrs.
For test [12], the system named is RAW264.7. As to the kind of experiment: Cytotoxicity against mouse RAW264.7 cells assessed as reduction in cell viability at 10 uM incubated for 24 hrs by MTT assay.

Here are results for eleven compounds from ChEMBL document CHEMBL5385873, “Analogues of natural products yaequinolones as potential inflammatory inhibitors: Design, synthesis and biological evaluation” (Eur J Med Chem, 2023).

Calls of active or inactive are those of the source. No cut-off for these calls is given here.

For `CO[C@@H]1C(=O)Nc2ccc3c(c2[C@@]1(O)c1ccccc1)O[C@](C)(CCC=C(C)C)C=C3`, the outcome in the test on RAW264.7 [1], with RAW264.7 [4] and in the test on RAW264.7 [5] was inactive. In addition, the outcome in the test with RAW264.7 [2], in the test with RAW264.7 [3] and with RAW264.7 [6] was Active.

For the compound `CO[C@H]1C(=O)Nc2ccc3c(c2[C@]1(O)c1ccccc1)O[C@](C)(CCC=C(C)C)C=C3`, the result with RAW264.7 [1], with RAW264.7 [4] and in the test on RAW264.7 [5] was inactive. The result in the test with RAW264.7 [2], with RAW264.7 [3] and in the test with RAW264.7 [6] was Active.

On to `COc1ccc2c(c1)c(CC(=O)O)c(C)n2C(=O)c1ccc(Cl)cc1`, for which the outcome with RAW264.7 [1] and in the test with RAW264.7 [7] was inactive.

Consider `CO[C@@H]1C(=O)Nc2ccc3c(c2[C@@]1(O)c1ccc(Br)cc1)O[C@@](C)(CCC=C(C)C)C=C3` (racemic), for which the outcome in the test with RAW264.7 [8] was Active.

`CO[C@@H]1C(=O)Nc2ccc3c(c2[C@@]1(O)c1ccc(C(F)(F)F)cc1)O[C@@](C)(CCC=C(C)C)C=C3` (racemic): the outcome with RAW264.7 [2], in the test on RAW264.7 [8] and in the test with RAW264.7 [6] was Active. In addition, the result in the test with RAW264.7 [4] and in the test with RAW264.7 [5] was inactive.

Regarding `CO[C@@H]1C(=O)Nc2ccc3c(c2[C@@]1(O)c1ccc([N+](=O)[O-])cc1)O[C@@](C)(CCC=C(C)C)C=C3` (racemic), the result with RAW264.7 [1], in the test on RAW264.7 [4] and with RAW264.7 [5] was inactive. Also, the result in the test on RAW264.7 [2], with RAW264.7 [3] and in the test with RAW264.7 [6] was Active.

Regarding `CO[C@@H]1C(=O)Nc2ccc3c(c2[C@@]1(O)c1ccc([N+](=O)[O-])cc1)O[C@](C)(CCC=C(C)C)C=C3` (racemic), the outcome in the test on RAW264.7 [1], in the test on RAW264.7 [4] and in the test with RAW264.7 [5] was inactive. Also, the outcome in the test on RAW264.7 [2] and in the test on RAW264.7 [6] was Active.

Turning to `CO[C@@H]1C(=O)Nc2ccc3c(c2[C@@]1(O)c1cccc(Br)c1)O[C@](C)(CCC=C(C)C)C=C3` (racemic), the outcome with RAW264.7 [1], with RAW264.7 [4] and in the test on RAW264.7 [5] was inactive. Moreover, the result with RAW264.7 [2], in the test on RAW264.7 [3] and in the test with RAW264.7 [6] was Active.

For `COc1ccc([C@]2(O)c3c(ccc4c3O[C@](C)(CCC=C(C)C)C=C4)N(Cc3cccc(Br)c3)C(=O)[C@H]2OC)cc1` (racemic), the result in the test on RAW264.7 [2], in the test on RAW264.7 [8] and in the test on RAW264.7 [6] was Active. The result in the test with RAW264.7 [4] was inactive.

On to `CO[C@@H]1C(=O)Nc2ccccc2[C@@]1(O)c1ccccc1` (relative stereo), for which the result in the test with RAW264.7 [9], in the test with RAW264.7 [11] and in the test with RAW264.7 [12] was Active. For the same compound, the outcome in the test on RAW264.7 [10] was inactive.

On to `COc1cccc2c1[C@@](O)(c1ccccc1)[C@H](OC)C(=O)N2` (relative stereo), for which the outcome in the test on RAW264.7 [9], in the test on RAW264.7 [10], in the test with RAW264.7 [11] and in the test with RAW264.7 [12] was Active.
